Measurements taken from ChEMBL document CHEMBL5038615, “Discovery of a cinnamyl piperidine derivative as new neddylation inhibitor for gastric cancer treatment” (Eur J Med Chem, 2021).
The source made the active and inactive calls. The rule behind the calls is not given here.

What was measured:
[1] = tested on: MGC-803; test: Induction of apoptosis in human MGC-803 cells assessed as reduction of mitochondrial membrane potential at 2.5 uM measured after 24 hrs by JC-1 staining based Flowcytometry assay (reference value: 3.8%); format: functional; design: scale not given: the % may be the effect or the level left
[2] = tested on: MGC-803; test: Induction of apoptosis in human MGC-803 cells assessed as ROS levels at 7.5 uM measured after 24 hrs by DCFH-DA staining based flow cytometry assay (reference value: 3.3%); format: functional
[3] = tested on: HGC-27; test: Induction of apoptosis in human HGC-27 cells assessed as viable cells at 9 uM measured after 48 hrs by AnnexinV/FITC staining based flow cytometry method (reference value: 93.18%); format: functional; conditions: read-out: Activity
[4] = target: T1, NEDD8-activating enzyme E1 regulatory subunit (Homo sapiens) (UniProt Q13564); test: Inhibition of NAE-mediated neddylation in human MGC-803 cells assessed as cullin5-Nedd8 adduct formation at 2.5 to 7.5 uM measured after 24 hrs by western blot assay; format: cell-based; conditions: dose 2.5-7.5 µM
T1 sequence (whole entry): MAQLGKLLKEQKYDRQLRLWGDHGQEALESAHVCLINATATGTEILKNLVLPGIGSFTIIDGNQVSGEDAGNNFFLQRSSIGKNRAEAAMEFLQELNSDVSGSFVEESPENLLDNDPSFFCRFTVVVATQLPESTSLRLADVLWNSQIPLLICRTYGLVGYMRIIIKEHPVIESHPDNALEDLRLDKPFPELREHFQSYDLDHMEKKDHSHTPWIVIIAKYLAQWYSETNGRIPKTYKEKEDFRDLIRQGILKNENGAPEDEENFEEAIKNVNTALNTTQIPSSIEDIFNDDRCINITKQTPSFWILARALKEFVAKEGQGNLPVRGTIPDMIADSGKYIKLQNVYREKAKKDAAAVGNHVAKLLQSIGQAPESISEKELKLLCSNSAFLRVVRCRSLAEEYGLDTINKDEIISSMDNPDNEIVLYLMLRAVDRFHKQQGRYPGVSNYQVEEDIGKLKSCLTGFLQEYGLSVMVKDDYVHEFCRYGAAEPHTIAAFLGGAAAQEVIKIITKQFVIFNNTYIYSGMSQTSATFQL

[5] = tested on: HGC-27; test: Induction of apoptosis in human HGC-27 cells assessed as necrotic cells at 9 uM measured after 48 hrs by AnnexinV/FITC staining based flow cytometry method (reference value: 0.1%); format: functional
[6] = tested on: MGC-803; test: Induction of apoptosis in human MGC-803 cells assessed as late apoptotic cells at 2.5 uM measured after 48 hrs by AnnexinV/FITC staining based flow cytometry method (reference value: 0.9%); format: functional
[7] = target: T1, NEDD8-activating enzyme E1 regulatory subunit (Homo sapiens); test: Inhibition of NAE-mediated neddylation in human MGC-803 cells assessed as cullin4A-Nedd8 adduct formation at 2.5 to 7.5 uM measured after 24 hrs by western blot assay; format: cell-based; conditions: dose 2.5-7.5 µM
[8] = tested on: MGC-803; test: Antitumour activity against human MGC-803 cells xenografted in NOD-SCID mouse assessed as reduction on tumour growth at 100 mg/kg/day, IG measured after 21 days relative to control; format: functional; conditions: MGC-803, po, 504 h, time 21 day, read-out: TGI
[9] = tested on: HGC-27; test: Induction of apoptosis in human HGC-27 cells assessed as late apoptotic cells at 6 uM measured after 48 hrs by AnnexinV/FITC staining based flow cytometry method (reference value: 1%); format: functional
[10] = tested on: MGC-803; test: Induction of apoptosis in human MGC-803 cells assessed as ROS levels at 2.5 uM measured after 24 hrs by DCFH-DA staining based flow cytometry assay (reference value: 3.3%); format: functional
[11] = tested on: MGC-803; test: Induction of apoptosis in human MGC-803 cells assessed as early apoptotic cells at 2.5 uM measured after 24 hrs by AnnexinV/FITC staining based flow cytometry method (reference value: 1.3%); format: functional
[12] = tested on: HGC-27; test: Induction of apoptosis in human HGC-27 cells assessed as upregulation of Bid at 3 to 9 uM measured after 24 hrs by Western blot assay; format: functional, cell-based; conditions: dose 3-9 µM
[13] = target: T1, NEDD8-activating enzyme E1 regulatory subunit (Homo sapiens); test: Inhibition of NAE-mediated neddylation in human MGC-803 cells assessed as cullin4B-Nedd8 adduct formation at 2.5 to 7.5 uM measured after 24 hrs by western blot assay; format: cell-based; conditions: dose 2.5-7.5 µM
[14] = tested on: HGC-27; test: Induction of apoptosis in human HGC-27 cells assessed as ROS levels at 3 uM measured after 24 hrs by DCFH-DA staining based flow cytometry assay (reference value: 6.8%); format: functional
[15] = tested on: MGC-803; test: Cell cycle arrest in human MGC-803 cells assessed as accumulation of cells at S phase at 2.5 uM measured after 24 hrs by Flowcytometry assay (reference value: 36.51%); format: functional
[16] = tested on: MGC-803; test: Induction of apoptosis in human MGC-803 cells assessed as necrotic cells at 2.5 uM measured after 48 hrs by AnnexinV/FITC staining based flow cytometry method (reference value: 0.2%); format: functional
[17] = tested on: HGC-27; test: Induction of apoptosis in human HGC-27 cells assessed as viable cells at 3 uM measured after 48 hrs by AnnexinV/FITC staining based flow cytometry method (reference value: 93.18%); format: functional; conditions: read-out: Activity
[18] = tested on: MGC-803; test: Induction of apoptosis in human MGC-803 cells assessed as viable cells at 5 uM measured after 48 hrs by AnnexinV/FITC staining based flow cytometry method (reference value: 97.4%); format: functional; conditions: read-out: Activity
[19] = tested on: HGC-27; test: Induction of apoptosis in human HGC-27 cells assessed as ROS levels at 9 uM measured after 24 hrs by DCFH-DA staining based flow cytometry assay (reference value: 6.8%); format: functional
[20] = tested on: HGC-27; test: Induction of apoptosis in human HGC-27 cells assessed as necrotic cells at 9 uM measured after 24 hrs by AnnexinV/FITC staining based flow cytometry method (reference value: 1.2%); format: functional
[21] = tested on: MGC-803; test: Induction of apoptosis in human MGC-803 cells assessed as late apoptotic cells at 7.5 uM measured after 48 hrs by AnnexinV/FITC staining based flow cytometry method (reference value: 0.9%); format: functional
[22] = tested on: A549; test: Antiproliferative activity against human A549 cells assessed as inhibition of cell proliferation measured after 72 hrs by MTT assay; format: functional, cell-based; conditions: A549, 72 h
[23] = tested on: MCF7; test: Antiproliferative activity against human MCF7 cells assessed as inhibition of cell proliferation measured after 72 hrs by MTT assay; format: functional, cell-based; conditions: MCF7, 72 h
[24] = tested on: MGC-803; test: Inhibition of cell migration in human MGC-803 cells at 1.25 to 5 uM measured after 24 to 48 hrs by wound healing assay based inverted microscopic analysis; format: functional; conditions: dose 1.25-5 µM, time 24-48 hrs
[25] = tested on: HGC-27; test: Induction of apoptosis in human HGC-27 cells assessed as viable cells at 6 uM measured after 24 hrs by AnnexinV/FITC staining based flow cytometry method (reference value: 95.7%); format: functional; conditions: read-out: Activity
[26] = tested on: MGC-803; test: Antiproliferative activity against human MGC-803 cells assessed as inhibition of cell proliferation measured after 72 hrs by MTT assay; format: functional, cell-based; conditions: MGC-803, 72 h
[27] = tested on: HGC-27; test: Induction of apoptosis in human HGC-27 cells assessed as ROS levels at 6 uM measured after 24 hrs by DCFH-DA staining based flow cytometry assay (reference value: 6.8%); format: functional
[28] = tested on: MGC-803; test: Induction of apoptosis in human MGC-803 cells assessed as upregulation of Bak at 2.5 to 7.5 uM measured after 24 hrs by Western blot assay; format: functional, cell-based; conditions: dose 2.5-7.5 µM

CCCCCc1ccc(NC(=O)C2CCN(C/C=C/c3ccccc3)CC2)cc1
Activity [1]: 4% | Activity [2]: 22.2% | viability at 9 µM [3]: 0.3% | inhibition [4]: Active | Activity [5]: 0% | Activity [6]: 43.5% | inhibition [7]: inactive | inhibition in vivo at 100 mg/kg/day [8]: 39.2% | Activity [9]: 21.2% | Activity [10]: 4% | Activity [11]: 2.1% | Activity [12]: Dose-Dependent Effect | inhibition [13]: inactive | Activity [14]: 11.4% | Activity [15]: 33.01% | Activity [16]: 2.9% | viability at 3 µM [17]: 64.4% | viability at 5 µM [18]: 38.4% | Activity [19]: 25.7% | Activity [20]: 2.7% | Activity [21]: 95.6% | IC50 [22]: 3.88 µM | IC50 [23]: 3.74 µM | Activity [24]: Dose-Dependent Effect | viability at 6 µM [25]: 25.4% | IC50 [26]: 2.55 µM | Activity [27]: 14.5% | Activity [28]: Dose-Dependent Effect
